{
  "source": "paper PMC3784064",
  "about": "“A phase I/II study of carfilzomib 2–10-min infusion in patients with advanced solid tumors” (Cancer Chemotherapy and Pharmacology, 2013)",
  "key": {"advanced solid tumors": {"tested_on": "advanced solid tumors", "assay": "Antitumor activity, treatment response by RECIST 1.0", "format": "in vivo, human", "protocol": "The primary objective of the phase I dose-escalation portion of the study was to determine the maximum tolerated dose (MTD) of carfilzomib up to a maximum planned dose (MPD) of 20/36 mg/m^2. The primary objective of the expansion (various tumor types) and phase II tumor-specific portions was to determine the disease control rate [DCR = complete response (CR) + partial response (PR) + stable disease (SD)] as defined by RECIST 1.0 [18] after four cycles of treatment at the MTD or MPD. Secondary objectives included pharmacokinetics (PK) and pharmacodynamics (PDn) of carfilzomib.\nOnce dose escalation was completed, an additional 11 evaluable patients with assorted tumor types could enroll in the expansion cohort to receive carfilzomib at the MTD/MPD. In the phase II tumor-specific portion of the study, cohorts of patients with NSCLC, SCLC, ovarian cancer, and renal cancer were to be treated at the MTD/MPD utilizing a Simon two-stage design. Tumor types included in the phase II tumor-specific cohorts were selected based on efficacy results from the phase I dose-escalation portion and preclinical data.\n(§1) All patients who received at least one dose of study treatment were evaluable for the safety analysis. After the initiation of carfilzomib, adverse events (AEs) were evaluated at each visit. Patients completed a comprehensive neurologic evaluation and radiographic assessment of tumor burden using computerized tomography (CT) at baseline and every 8 weeks for the first 24 weeks, then every 12 weeks thereafter or at treatment discontinuation. Patients who received at least one cycle of treatment and had both baseline and post-baseline disease assessments were evaluable for efficacy. Treatment response was assessed according to RECIST 1.0 [18]. Patients with stable disease (SD) or an objective response (CR or PR) after two cycles continued treatment until disease progression or unacceptable toxicity.\nContinuous and categorical data were summarized with descriptive statistics or frequencies and percentages, respectively. For the phase II tumor-specific portion, the Simon two-stage sample size calculation applied a null hypothesis objective response rate (ORR = CR + PR) of 2 % and an alternative hypothesis ORR of 15 %, with the type I error at 5 % and a power of 0.8. For stage 1, 11 evaluable patients were to be enrolled in each of the four solid tumor cohorts. […] Because there were multiple study sites, over enrollment was permitted."}, "[1]": {"tested_on": "human solid tumor xenograft model", "set-up": "method as in PMID 17616698", "settings": "consecutive-day dosing; cited from earlier work"}, "[2]": {"settings": "human, in vivo, 20 mg/m2", "experimental": "(§3) Serial blood samples were collected on days 1 and 16 of cycle 1 and day 16 of cycle 2 as follows: predose, immediately post-dose, and then at 5, 15, and 30 min, and 1, 2, and 4 h post-dose. Plasma samples for PK studies were assayed using validated liquid chromatography/mass spectrometry with a lower limit of detection of 0.10 ng/ml [17].\n(§4) Pharmacokinetic parameters were estimated by non-compartmental analysis using WinNonlin Enterprise Version 5.2 (Pharsight Inc., Mountain View, CA)."}, "solid tumor cell lines": {"tested_on": "solid tumor cell lines", "set-up": "method as in PMID 17616698", "settings": "1-h pulse, replicating clinical pharmacokinetics; cited from earlier work"}, "[3]": {"tested_on": "patients with advanced solid tumors", "assay": "Phase I dose escalation (3 + 3): DLT and MTD determination", "format": "in vivo", "protocol": "Carfilzomib (Onyx Pharmaceuticals, Inc, South San Francisco, CA) was administered by intravenous infusion over 2–10 min on days 1, 2, 8, 9, 15, and 16 of a 28-day cycle. For the phase I dose-escalation portion, the starting dose in all cohorts for days 1 and 2 of cycle 1 was 20 mg/m^2, based on the tolerated dose identified in hematologic malignancies. On all remaining cycle 1 dosing days (days 8, 9, 15, and 16) and in all subsequent cycles, carfilzomib was administered at a dose of 20 mg/m^2 in cohort 1 (20/20 mg/m^2), 27 mg/m^2 in cohort 2 (20/27 mg/m^2), and 36 mg/m^2 in cohort 3 (20/36 mg/m^2). Stepped-up dosing in cycle 1 and dexamethasone premedication were adopted to abrogate fever, chills and/or rigors, and dyspnea, all of which were […] observed during initial therapy in MM trials. Dexamethasone 4 mg (intravenous or oral) was administered prior to each carfilzomib dose for the first cycle and during subsequent cycles when indicated. Upon completion of 12 treatment cycles, patients had the option of enrolling in an open-label extension study, PX-171-010 (NCT00884312).\n(§2) The phase I dose-escalation portion of the study followed the standard 3 + 3 design. Patients were enrolled at two sites in sequential cohorts of 3–6 patients each to establish the MTD. The MTD was defined as the highest dose up to the MPD at which […] of six patients experienced treatment-related dose-limiting toxicities (DLT) during the first cycle. DLTs were defined as treatment-related ≥grade 2 neuropathy with pain, ≥grade 3 non-hematologic toxicity, grade 4 neutropenia or thrombocytopenia lasting 7 or more days, or thrombocytopenia with bleeding. Toxicity was graded according to NCI CTCAE v3.0 [19]."}, "patients with MM": {"tested_on": "patients with MM", "settings": "human, in vivo, iv; cited from earlier work"}, "[4]": {"tested_on": "proteasome chymotrypsin-like (CT-L) activity in whole blood and PBMCs", "assay": "Pharmacodynamics: proteasome CT-L activity, fluorogenic LLVY-AMC substrate assay", "format": "in vivo, human", "settings": "for Median proteasome inhibition / proteasome inhibition, range: day 1 of cycle 2", "protocol": "Whole blood was collected on day 1 of the first two cycles prior to and 1 h after infusion for measurement of proteasome activity in whole blood and peripheral blood mononuclear cells (PBMCs). CT-L activity was assessed using a fluorogenic substrate assay with succinyl–Leu–Leu–Val–Tyr–AMC (LLVY) as previously described."}, "proteasome in PBMCs": {"tested_on": "proteasome in PBMCs", "set-up": "method as in PMID 22761464", "settings": "20/27 mg/m^2, patients with hematologic malignancies; cited from earlier work"}, "clinical": {"assay": "clinical", "settings": "human, in vivo", "experimental": "as §3, §4"}, "[5]": {"tested_on": "patients with advanced solid tumors", "assay": "Safety: adverse events graded by NCI CTCAE v3.0", "format": "in vivo", "text": "as §2, §1"}, "[6]": {"settings": "20 mg/m^2, one hour after administration"}, "[7]": {"settings": "27 mg/m^2, one hour after administration"}, "[8]": {"settings": "36 mg/m^2, one hour after administration"}},
  "note": "Read-outs that look alike come from different tables or passages of the source.",
  "data": [
    {"smiles": "CC(C)C[C@H](NC(=O)[C@H](CCc1ccccc1)NC(=O)CN1CCOCC1)C(=O)N[C@@H](Cc1ccccc1)C(=O)N[C@@H](CC(C)C)C(=O)[C@@]1(C)CO1", "note": "[carfilzomib]", "values": [
      {"measurement": "PD as best response", "setting": "advanced solid tumors; expansion and phase II patients, 29/51, 20/36 mg/m^2", "value": 56.9, "unit": "%"},
      {"measurement": "patients with SD for 6 months or longer", "setting": "advanced solid tumors; expansion and phase II tumor-specific cohorts, 20/36 mg/m^2", "value": "four"},
      {"measurement": "patients with SD after two cycles", "setting": "advanced solid tumors; expansion and phase II tumor-specific cohorts, 22 of 51 evaluable patients, 20/36 mg/m^2", "value": 43.1, "unit": "%"},
      {"measurement": "PR or better", "setting": "advanced solid tumors; expansion and phase II tumor-specific cohorts, 51 evaluable patients, 20/36 mg/m^2, after four cycles or over the study period", "value": "No patients"},
      {"measurement": "reduction in tumor burden", "setting": "advanced solid tumors; one patient with renal cancer, 20/36 mg/m^2, after five cycles", "value": "> 80", "unit": "%"},
      {"measurement": "progressive disease (PD)", "setting": "advanced solid tumors; phase I dose-escalation portion, 12 evaluable patients", "value": "eight"},
      {"measurement": "confirmed partial response (PR)", "setting": "advanced solid tumors; phase I dose-escalation portion, 20/36 mg/m^2, 12 evaluable patients", "value": "two"},
      {"measurement": "antitumor activity compared with bortezomib or carfilzomib dosed on days 1 and 4", "setting": "[1]", "value": "more effective antitumor activity"},
      {"measurement": "AUClast", "setting": "[2]", "value": "269 ± 61.7", "unit": "ng·h/mL"},
      {"measurement": "CL", "setting": "[2]", "value": "136 ± 52.8", "unit": "L/h"},
      {"measurement": "Cmax", "setting": "[2]", "value": "3410 ± 51.5", "unit": "ng/mL"},
      {"measurement": "potency at killing solid tumor cell lines compared with bortezomib", "setting": "solid tumor cell lines", "value": "more potent than bortezomib"},
      {"measurement": "MPD recommended for the expansion and phase II tumor-specific portions", "setting": "[3]; human, in vivo, iv, 28 days", "value": "20/36"},
      {"measurement": "dose-limiting toxicities (DLT)", "setting": "[3]; in vivo", "value": "no DLTs"},
      {"measurement": "maximum tolerated dose (MTD)", "setting": "[3]; phase I dose-escalation portion, up to the MPD of 20/36 mg/m^2", "value": "No MTD was identified"},
      {"measurement": "tolerable dose", "setting": "patients with MM", "value": "20/27"},
      {"measurement": "Median proteasome inhibition", "setting": "[4]; [6]", "value": 83.4, "unit": "%"},
      {"measurement": "proteasome inhibition, range", "setting": "[4]; [6]", "value": "82.9–85.5%"},
      {"measurement": "Median proteasome inhibition", "setting": "[4]; [7]", "value": 91.6, "unit": "%"},
      {"measurement": "proteasome inhibition, range", "setting": "[4]; [7]", "value": "79.0–93.2%"},
      {"measurement": "Median proteasome inhibition", "setting": "[4]; [8]", "value": 88.6, "unit": "%"},
      {"measurement": "proteasome inhibition, range", "setting": "[4]; [8]", "value": "54.7–99.4%"},
      {"measurement": "recovery of proteasome activity by the start of the second cycle", "setting": "[4]; PBMCs", "value": "there was recovery"},
      {"measurement": "recovery of constitutive proteasome activity between cycles", "setting": "[4]; whole blood", "value": "Minimal recovery"},
      {"measurement": "inhibition of proteasome CT-L activity", "setting": "[4]; whole blood and PBMCs, one hour after administration on day 1 of cycle 2, all doses", "value": "at least 80%"},
      {"measurement": "proteasome inhibition", "setting": "proteasome in PBMCs", "value": "> 90", "unit": "%"},
      {"measurement": "AUC(0-t)", "setting": "clinical; 20 mg/m2, AUClast", "value": "251 ± 92", "unit": "ng·h/mL"},
      {"measurement": "clearance", "setting": "clinical; 20 mg/m2, CL", "value": 4380, "unit": "mL/min"},
      {"measurement": "Cmax", "setting": "clinical; 20 mg/m2, Cmax", "value": "2390 ± 104", "unit": "ng/mL"},
      {"measurement": "AUC(0-t)", "setting": "clinical; 27 mg/m2, AUClast", "value": "379 ± 24.8", "unit": "ng·h/mL"},
      {"measurement": "clearance", "setting": "clinical; 27 mg/m2, CL", "value": 2500, "unit": "mL/min"},
      {"measurement": "Cmax", "setting": "clinical; 27 mg/m2, Cmax", "value": "4230 ± 48.8", "unit": "ng/mL"},
      {"measurement": "Vd", "setting": "clinical; 27 mg/m2, V ss", "value": "11.1 ± 4.45", "unit": "L"},
      {"measurement": "half-life", "setting": "clinical; 27 mg/m2, t 1/2", "value": 21, "unit": "min"},
      {"measurement": "AUC(0-t)", "setting": "clinical; 36 mg/m2, AUClast", "value": "594 ± 52.5", "unit": "ng·h/mL"},
      {"measurement": "clearance", "setting": "clinical; 36 mg/m2, CL", "value": 1930, "unit": "mL/min"},
      {"measurement": "Cmax", "setting": "clinical; 36 mg/m2, Cmax", "value": "5718 ± 46.5", "unit": "ng/mL"},
      {"measurement": "Vd", "setting": "clinical; 36 mg/m2, V ss", "value": "9.33 ± 4.8", "unit": "L"},
      {"measurement": "half-life", "setting": "clinical; 36 mg/m2, t 1/2", "value": 52.2, "unit": "min"},
      {"measurement": "half-life", "setting": "clinical; iv, half-life", "value": "< 60", "unit": "min"},
      {"measurement": "AE: fatigue", "setting": "[5]; human, in vivo", "value": 35.7, "unit": "%"},
      {"measurement": "AE: headache", "setting": "[5]; human, in vivo", "value": 42.9, "unit": "%"},
      {"measurement": "AE: hypokalemia", "setting": "[5]; human, in vivo", "value": 35.7, "unit": "%"},
      {"measurement": "patients who discontinued due to AEs", "setting": "[5]; human, in vivo", "value": 14.3, "unit": "%"},
      {"measurement": "patients who discontinued due to an AE", "setting": "[5]; human, in vivo", "value": 10.8, "unit": "%"},
      {"measurement": "patients who missed at least one carfilzomib dose due to AEs", "setting": "[5]; human, in vivo", "value": 29.2, "unit": "%"},
      {"measurement": "patients with carfilzomib dose reduced due to AEs of elevated blood creatinine/decreased CrCl", "setting": "[5]; human, in vivo", "value": 12.3, "unit": "%"},
      {"measurement": "carfilzomib dose reduced due to AEs", "setting": "[5]; in vivo", "value": "No patients"},
      {"measurement": "deaths considered related to carfilzomib", "setting": "[5]; on study or within 30 days of ending treatment", "value": "No deaths"}
    ]}
  ]
}
